Experiment: Binding affinity to beta cyclodextrin

Compared with `CCOc1ccccc1` [PHENETOLE], `Nc1ccc(-c2ccc(N)cc2)cc1` [BENZIDINE] is higher in “log Ks” value: 2.49 for the first, 3.35 for the second.

Compared with `CCC(O)CC` [3-PENTANOL], `O=C(O)CC12CC3CC(CC(C3)C1)C2` is higher in “log Ks” value: 1.35 for the first, 4.32 for the second.
